We go through two compounds from paper PMC9370031, “Free Linoleic Acid and Oleic Acid Reduce Fat Digestion and Absorption In Vivo as Potent Pancreatic Lipase Inhibitors Derived from Sesame Meal” (Molecules, 2022).

Read-outs that look alike come from different tables or passages of the source.

In the assay the target is T1, porcine pancreatic lipase (Sus scrofa, UniProt P00591).
T1 construct: gene PNLIP
T1 sequence (P00591 1-450): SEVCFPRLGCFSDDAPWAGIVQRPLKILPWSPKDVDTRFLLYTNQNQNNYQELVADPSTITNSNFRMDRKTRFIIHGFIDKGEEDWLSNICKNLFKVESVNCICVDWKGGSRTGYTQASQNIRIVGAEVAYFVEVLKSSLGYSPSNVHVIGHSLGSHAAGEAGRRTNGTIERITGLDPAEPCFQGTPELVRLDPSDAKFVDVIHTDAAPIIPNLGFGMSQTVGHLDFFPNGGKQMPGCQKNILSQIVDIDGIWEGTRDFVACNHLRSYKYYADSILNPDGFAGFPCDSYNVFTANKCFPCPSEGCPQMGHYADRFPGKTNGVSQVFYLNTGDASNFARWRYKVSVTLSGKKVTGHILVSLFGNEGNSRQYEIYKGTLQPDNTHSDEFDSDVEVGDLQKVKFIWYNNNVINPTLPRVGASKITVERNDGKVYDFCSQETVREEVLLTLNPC
Briefly: colorimetric lipase activity assay (Lipase Kit S, BLAB/DTNB, […] nm) with porcine pancreas lipase Type II. Type of assay: biochemical.

For the compound `CCCCC/C=C\C/C=C\CCCCCCCC(=O)O` [linoleic acid], the concentration for half-maximal inhibition (IC50) was determined as 82.4 µM.

As to `CCCCCCCC/C=C\CCCCCCCC(=O)O` [oleic acid], the IC50 (read-out: IC50) is 41.4 µM.

In general, IC50 refers to the concentration at which inhibition is half-maximal.
